# Reference: patent US9169241B2, “Quinolinyloxyphenylsulfonamides” (Max-Planck-Gesellschaft Zur Forderung der Wissenschaften …, priority 2009, dated 2015)
# Read-outs that look alike come from different tables or passages of the source.
# Legend:
# tumor cell = assay: Matrigel outgrowth assay/branching assay (Table Va); assay type: cell-based
# Description: The Matrigel outgrowth assay is based on the ability of tumor cell to penetrate a solid gel of extracellular matrix proteins mimicking the metastasis formation in vivo. While cells with low invasive potential appear as roundish cell or cell cluster, cells with high invasive potential penetrate the Matrigel and form polymorphic structures. In detail 65 μl of Matrigel matrix (Matrigel™ Matrix, BD Biosciences, Bedford, Mass., USA) with a concentration of 3 mg/ml have been polymerized in 96 well plates for 1 h at 37° C. Subsequently 5000 cell/well were seeded into each well containing cell culture medium and indicated compound with concentrations of 3.125 μM, 1.56 μM and 0.78 μM as well as DMSO control. After 48 h, 72 h and 96 h images of cell were taken on an inverted microscope using a 5× objective (Zeiss Axiovert S100 microscope Carl Zeiss UK, Welwyn Garden City, UK). Only compound concentrations were total branching inhibition was evident were accounted as positive. Method was used as previously described, with some modifications (Thompson E W, et al. Association of increased basement membrane invasiveness with absence of estrogen receptor and expression of vimentin in human breast cancer cell lines. J Cell Physiol 1992; 150:534-44).
# cells = assay: Boyden chamber migration assay (Table VI); assay type: cell-based; settings: Homo sapiens, Hs-578T, 16 h, Hs578T cells; 16 h migration
# Description: The Boyden chamber assay is based on a chamber of two medium-filled compartments separated by a microporous membrane of 8 μM (Cell culture insert 8.0 μM pore size, BD Biosciences, Bedford, Mass.). The boyden chamber migration assays were carried out according to the supplier's instructions. In general, 20000 cells are placed in the upper compartment with medium containing 0% FCS plus 0.1% BSA and are allowed to migrate 16 h through the pores of the membrane into the lower compartment, which is filled with cell culture medium containing 10% FCS as chemotactic agents. The cells remaining in the insert were removed with a cotton swab, and the cells on the bottom of the filter were fixed and counted. (Zhang Y X, et al. AXL is a potential target for therapeutic intervention in breast cancer progression. Cancer Res. 2008; 68:1905-15).
# viable cells in culture = assay: Cell viability assay at 10 μM (CellTiter-Glo, Table VII); assay type: cell-based; settings: compound 10 μM, 72 h;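 also: graded A 0-20%; B 21-40%; C 41-60%; D over 60% viable cells relative to DMSO control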
# Description: The CellTiter-Glo® Luminescent Cell Viability Assay (Promega Corporation. Madison, Wis., USA) is method a determining the number of viable cells in culture based on quantification of the ATP being present which is an indicator of metabolically active cells was used according to manufacturers protocol. In detail the assay was performed in a 96 well format were 1000 cells/well were incubated with compound at concentration 10 μM as well as DMSO control for 72 h in 100 μl cell culture medium. Percentage of inhibition was calculated compared to ATP amount of DMSO control.
# Hs578T [1] = assay: Matrigel outgrowth assay/branching assay; assay type: cell-based; settings: Homo sapiens, Hs-578T; HS578T cell line; Table Ib; read-out: Total branching inhibition in Matrigel HS578T
# How it was run: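 Cells (5000/well) were seeded onto polymerized 3 mg/ml Matrigel with compound at 3.125, 1.56 or 0.78 μM, or DMSO. Imaging by inverted microscopy at 48, 72 and 96 h scored invasive branching. Only concentrations giving total branching inhibition counted as positive.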
# indicated cell line = assay: Wound healing migration assay (Table IV); assay type: cell-based; settings: compounds at 12.5, 6.25, 3.125 μM, 48 h-72 h
# Description: This method mimics cell migration during wound healing in vivo. The basic steps involve creating a “wound” in a cell monolayer, capturing the images at the beginning and at regular intervals during cell migration to close the wound, and comparing the images to quantify the migration rate of the cells. In detail, 150000 cell/24 well have been seeded and allowed to form a monolayer overnight. Subsequently a “wound” or “scratch” has been performed with a 1000 μl pipette tip. The STDV of wound size is normally below 10% at time point t0. The assay was stopped by fixation with 0.05% Crystal violet/20% methanol when control scratches were closed. The assay was terminated between 48 h and 72 h depending on the migration potential of the indicated cell line. The “wounds” were visualized with a Zeiss Axiovert S100 microscope (Carl Zeiss UK, Welwyn Garden City, UK). The tested compounds were used at 12.5 μM, 6.25, 3.125 μM and DMSO control. IC50 values have been calculated as 50% wound size in between t0 and t48 or t72.
# Hs578T [2] = assay: Apoptosis assay (Cellomics, nucleus condensation); assay type: cell-based; settings: Homo sapiens, Hs-578T, Table III, read-out: Apoptosis induction in Hs578T
# Description: (§1) The Cellomics BioApplication (Thermo Fischer Cellomics Products, Pittsburgh, Pa.) is an automated image analysis algorithm that provides detailed analysis of phenotypes related to apoptosis. As one of the most prominent characteristics of apoptotics cell a nucleus condensation takes place. This can be measured fluorescence signal intensity using a CCD camera on fully automated microscope system. The Cellomics system is able to quantify the fluorescence intensity per single nucleus and calculates the variation of signal intensity in each cell population. […] Additionally the number of detected cell decreases normally in apoptotic cell populations. In detail 5000 cell per 96 well were labeled with DNA intercalating dye (Hoechst 33342, Sigma, Steinheim, Germany) to visualize the nucleus in a fluorescence microscope under live conditions. The apoptosis assay was performed 24 h and 48 h after addition of compound at concentrations 12.5 μM, 6.25 μM, 3.125 μM, 1.56 μM, 0.78 μM, 0.39 μM as well as DMSO control for 48 h.
# C8161 = assay: Apoptosis assay (Cellomics, nucleus condensation); assay type: cell-based; settings: Homo sapiens, Table III, read-out: Apoptosis induction in C8161
# Description: as §1
# SF126 = assay: Apoptosis assay (Cellomics, nucleus condensation); assay type: cell-based; settings: Homo sapiens, SF-126, Table III, read-out: Apoptosis induction in SF126
# Description: as §1
# U138 = assay: Apoptosis assay (Cellomics, nucleus condensation); assay type: cell-based; settings: Table III, read-out: Apoptosis induction in U138
# Description: as §1
# SF763 = assay: Apoptosis assay (Cellomics, nucleus condensation); assay type: cell-based; settings: Table III, read-out: Apoptosis induction in SF763
# Description: as §1
# [3] = Homo sapiens, C8161 cells, read-out: Total branching inhibition in Matrigel C8161
# [4] = Homo sapiens, Hs-578T, Hs578T cells, read-out: Total branching inhibition in Matrigel Hs578T
# [5] = U118 cells, read-out: Total branching inhibition in Matrigel U118
# [6] = U138 cells, read-out: Total branching inhibition in Matrigel U138
# [7] = Homo sapiens, HCT-116, HCT116 def, read-out: percentage (%) of viable cells HCT 116def
# [8] = Homo sapiens, HCT-116, HCT116 wt, read-out: percentage (%) of viable cells HCT 116wt
# [9] = Homo sapiens, HT-29, HT29, read-out: percentage (%) of viable cells HT29
# [10] = Homo sapiens, NCI-H358, H358, read-out: percentage (%) of viable cells H358
# [11] = Homo sapiens, NCI-H1650, H1650, read-out: percentage (%) of viable cells H1650
# [12] = Homo sapiens, NCI-H1666, H1666, read-out: percentage (%) of viable cells H1666
# [13] = Homo sapiens, NCI-H1975, H1975, read-out: percentage (%) of viable cells H1975
# [14] = Homo sapiens, NCI-H1993, H1993, read-out: percentage (%) of viable cells H1993
# [15] = Homo sapiens, A549, read-out: percentage (%) of viable cells A549
# [16] = Homo sapiens, HCC827, read-out: percentage (%) of viable cells HCC827
# [17] = Homo sapiens, SW480, read-out: percentage (%) of viable cells SW480
# [18] = RKO, read-out: percentage (%) of viable cells RKO
# [19] = Homo sapiens, C8161 cells, read-out: IC50 Wound healing Assay C8161
# [20] = SF763 cells, read-out: IC50 Wound healing Assay SF763
smiles,measurement,setting,value
"COc1cc2c(Oc3ccc(NS(=O)(=O)c4ccccc4C#N)cc3F)ccnc2cc1OCCCN1CCN(C)CC1 [Example 15, 2-Cyano-N-(3-fluoro-4-{6-methoxy-7-[3-(4-methyl-piperazin-1-yl)-propoxy]-quinolin-4-yloxy}-phenyl)-benzenesulfonamide]",melting point,,109 to 111 °C
same,IC50,tumor cell; [3],≤ 5 µM
same,IC50,tumor cell; [4],≤ 5 µM
same,IC50,tumor cell; [5],≤ 5 µM
same,IC50,tumor cell; [6],≤ 5 µM
same,IC50,cells,≤ 5 µM
same,viability at 10 µM,viable cells in culture; [7],> 60%
same,viability at 10 µM,viable cells in culture; [8],> 60%
same,viability at 10 µM,viable cells in culture; [9],41 to 60%
same,viability at 10 µM,viable cells in culture; [10],41 to 60%
same,viability at 10 µM,viable cells in culture; [11],41 to 60%
same,viability at 10 µM,viable cells in culture; [12],41 to 60%
same,viability at 10 µM,viable cells in culture; [13],41 to 60%
same,viability at 10 µM,viable cells in culture; [14],21 to 40%
same,viability at 10 µM,viable cells in culture; [15],> 60%
same,viability at 10 µM,viable cells in culture; [16],> 60%
same,viability at 10 µM,viable cells in culture; [17],21 to 40%
same,viability at 10 µM,viable cells in culture; [18],41 to 60%
same,IC50,Hs578T [1],≤ 10 µM
same,IC50,indicated cell line; [19],12.5 to 50 µM
same,IC50,indicated cell line; [20],≤ 12.5 µM
same,IC50,Hs578T [2],≤ 12.5 µM
same,IC50,C8161,≤ 12.5 µM
same,IC50,SF126,≤ 12.5 µM
same,IC50,U138,≤ 12.5 µM
same,IC50,SF763,≤ 12.5 µM
"CCN(CC)CCCOc1cc2nccc(Oc3ccc(NS(=O)(=O)c4ccccc4C(F)(F)F)cc3F)c2cc1OC [Example 101, N-{4-[7-(3-Diethylamino-propoxy)-6-methoxy-quinolin-4-yloxy]-3-fluoro-phenyl}-2-trifluoromethyl-benzenesulfonamide]",IC50,tumor cell; [3],≤ 5 µM
same,IC50,tumor cell; [4],5 to 50 µM
same,IC50,tumor cell; [5],≤ 5 µM
same,IC50,tumor cell; [6],5 to 50 µM
same,IC50,cells,≤ 5 µM
same,viability at 10 µM,viable cells in culture; [7],21 to 40%
same,viability at 10 µM,viable cells in culture; [8],21 to 40%
same,viability at 10 µM,viable cells in culture; [9],0 to 20%
same,viability at 10 µM,viable cells in culture; [10],0 to 20%
same,viability at 10 µM,viable cells in culture; [11],41 to 60%
same,viability at 10 µM,viable cells in culture; [12],41 to 60%
same,viability at 10 µM,viable cells in culture; [13],41 to 60%
same,viability at 10 µM,viable cells in culture; [14],21 to 40%
same,viability at 10 µM,viable cells in culture; [15],41 to 60%
same,viability at 10 µM,viable cells in culture; [16],21 to 40%
same,viability at 10 µM,viable cells in culture; [17],0 to 20%
same,viability at 10 µM,viable cells in culture; [18],0 to 20%
same,IC50,Hs578T [1],10 to 25 µM
same,IC50,indicated cell line; [19],12.5 to 50 µM
same,IC50,indicated cell line; [20],12.5 to 50 µM
same,IC50,Hs578T [2],≤ 12.5 µM
same,IC50,C8161,≤ 12.5 µM
same,IC50,SF126,12.5 to 50 µM
same,IC50,U138,≤ 12.5 µM
same,IC50,SF763,≤ 12.5 µM
